{
  "source": "patent US20150133527A1",
  "about": "“REGULATION OF CARDIAC SODIUM CHANNELS BY SIRT1 AND SIRT1 ACTIVATORS” (University of Pittsburgh - Of the Commonwealth System of …, priority 2012, published 2015)",
  "key": {"[1]": {"test_system": "native Nav1.5 (INa)", "experiment": "Whole cell patch clamp of INa in rat neonatal cardiac myocytes", "assay_type": "cell-based", "settings": "5 μM"}, "[2]": {"test_system": "native Nav1.5", "experiment": "Lysine acetylation of native Nav1.5 in rat neonatal cardiomyocytes (Western blot)", "assay_type": "cell-based", "description": "FIGS. 9A-9C are a graph and a set of Western blots showing that inhibition of endogenous SIRT1 increases lysine acetylation of native Nav1.5 in rat neonatal cardiomyocytes.\n(§1) How SIRT1 acts to increase Nav1.5 membrane localization and INa was addressed. Because SIRT1 is a lysine deacetylase, it was hypothesized that it changes the acetylation status of lysine residues in Nav1.5. To test this hypothesis, whether the two proteins bind to each other was tested. […] In addition, endogenous SIRT1 co-precipitated with endogenous Nav1.5 in NRCMs and in mouse hearts (FIG. 7B). Next, if Nav1.5 is acetylated on lysine residues was determined. In HEK 293 cells expressing the full-length channel, Nav1.5 was robustly acetylated on lysine residues, and overexpression or stimulation (with resveratrol) of SIRT1 decreased, while inhibition of SIRT1 with NAM increased, this acetylation (FIG. 8)."}, "[3]": {"test_system": "Nav1.5 (III-IV)", "experiment": "Lysine acetylation of GST-tagged Nav1.5 (III-IV) expressed in HEK 293 cells", "assay_type": "cell-based", "settings": "GST-tagged loop III-IV construct in HEK 293 cells", "from_the_text": "GST-tagged Nav1.5 (III-IV) was expressed in HEK 293 cells. Cells were co-transfected with wild-type SIRT1 or treated with NAM or resveratrol. Nav1.5 (III-IV) was pulled down with GST-agarose, and immunoblotted (IB) with GST and acety-lysine antibodies.\nBecause Nav1.5 has 84 lysine residues, the number of putative lysine targets of SIRT1 was narrowed down by excluding the extra-cellular and membrane-spanning domains. Attention was initially focused on one intracellular region (termed loop III-IV) which is rich in lysine residues (12 lysines), based on by prior reports showing that lysines in this region are important for channel function (Grant et al., J. Clinic. Invest. 110, 1201-1209, 2002). Using a GST-tagged construct encoding the 61 amino acids in loop III-IV expressed in HEK 293 cells, if lysine acetylation of this region of Nav1.5 is regulated by SIRT1 was examined."}, "[4]": {"test_system": "full-length Nav1.5", "experiment": "Lysine acetylation of full-length Nav1.5 expressed in HEK 293 cells (acetyl-lysine IP / immunoblot)", "assay_type": "cell-based", "settings": "HEK 293 cells expressing the full-length channel", "from_the_text": "FIGS. 8A and 8B show a series of Western blot images illustrating that wild-type SIRT1 deacetylates full-length Nav1.5. (8A) GFP-tagged full-length Nav1.5 was expressed in HEK 293 cells, with and without myc-tagged wild-type SIRT1, and immunoprecipitated (IP). IPs were immunoblotted (IB) with GFP and myc. (8B) Nav1.5 was expressed in HEK 293 cells. Cells were co-transfected with SIRT or treated with resveratrol or NAM. Acetyl-lysine IPs were immunoblotted for Nav1.5\nas §1"}, "[5]": {"test_system": "GST-Nav1.5 (III-IV)", "experiment": "Ubiquitination of GST-Nav1.5 (III-IV) in HEK 293 cells", "assay_type": "cell-based"}, "[6]": {"test_system": "GFP-tagged full-length Nav1.5", "experiment": "Ubiquitination of GFP-tagged full-length Nav1.5 in HEK 293 cells", "assay_type": "cell-based", "settings": "resveratrol 100 μM, 4 hrs", "description": "FIGS. 13A and 13B are a set of Western blots showing that SIRT1 de-ubiquitinates Nav1.5. (A) HEK 293 cells were transfected with full-length GFP-tagged Nav1.5 and HA-ubiquitin. Cells were treated with resveratrol (100 μM, 4 hrs). Nav1.5 was immunoprecipitated (IP) with GFP and immunoblotted with GFP and HA. (B) HEK 293 cells were transfected with GST-tagged Nav1.5 (III-IV) and HA-ubiquitin. Cells were treated with NAM or co-transfected with SIRT1. Nav1.5 (III-IV) was pulled down with GST-agarose and immunoblotted (IB) with HA.\nPoly-ubiquitination of Nav1.5 inhibits its membrane localization (Van Bemmelen et al., Circ. Res. 95, 284-291, 2004). SIRT1 regulates ubiquitination of some of its targets, in some cases decreasing ubiquitination (Van Bemmelen et al., Circ. Res. 95, 284-291, 2004). Because SIRT1 increases membrane expression of Nav1.5, whether SIRT1 decreases ubiquitination of the channel was tested. First, the effect of the SIRT1 activator resveratrol on ubiquitination of Nav1.5 was determined. In HEK 293 cells GFP-tagged full-length Nav1.5 was robustly poly-ubiquitinated (FIG. 13A). […] Using GST-Nav1.5 (III-IV) the effect of SIRT1 on ubiquitination of this intracellular region of Nav1.5 was also examined. Similar to full-length Nav1.5, GST-Nav1.5 (III-IV) was also poly-ubiquitinated (FIG. 13B). […]"}, "[7]": {"experiment": "QRS amplitude on ECGs", "assay_type": "in vivo", "settings": "suggestive of increased sodium currents", "from_the_text": "It is disclosed herein that SIRT1 can deacetylate Nav1.5, that Nav1.5 and SIRT1 co-immunoprecipitate, that over-expression of SIRT1 increases INa currents and that dominant negative suppression of SIRT1 or use of SIRT1 inhibitors decreases INa currents, that SIRT1 increases membrane expression of Nav1.5 and dominant negative SIRT1 decreases membrane expression of Nav1.5, that SIRT1 targets lysine 1479 in Nav1.5, that SIRT1 increases INa and dominant negative SIRT1 decreases INa by targeting lysine 1479 in Nav1.5, and that SIRT1 increases membrane expression of Nav1.5 by targeting lysine 1479 in Nav1.5. In addition there is prolongation of the PR interval, intermittent high-grade atrioventricular block on ECGs and telemetry of cardiomyocyte-specific SIRT1 knockout mice compared to wild type control mice, and decreased conduction velocity of the electrical impulse in hearts of cardiomyocyte-specific SIRT1 knockout mice compared to wild type control mice."}},
  "data": [
    {"molecule": "NC(=O)[C@H]1CCCc2c1[nH]c1ccc(Cl)cc21", "note": "[Ex-243]", "values": [
      {"measurement": "effect on INa", "setting": "[1]; compared to inactive isomer Ex-242", "value": "significantly decreased"},
      {"measurement": "effect on INa", "setting": "[1]; compared to inactive isomer Ex-242, listed as ex-243", "value": "decreases"},
      {"measurement": "lysine acetylation of native Nav1.5", "setting": "[2]", "value": "increases"}
    ]},
    {"molecule": "NC(=O)c1cccnc1", "note": "[NAM, nicotinamide]", "values": [
      {"measurement": "acetylation of Nav1.5 (III-IV)", "setting": "[3]", "value": "increased"},
      {"measurement": "lysine acetylation of full-length Nav1.5", "setting": "[4]", "value": "increased"},
      {"measurement": "poly-ubiquitination of GST-Nav1.5 (III-IV)", "setting": "[5]", "value": "increased"}
    ]},
    {"molecule": "Oc1ccc(C=Cc2cc(O)cc(O)c2)cc1", "note": "[resveratrol]", "values": [
      {"measurement": "acetylation of Nav1.5 (III-IV)", "setting": "[3]", "value": "decreased"},
      {"measurement": "lysine acetylation of full-length Nav1.5", "setting": "[4]", "value": "decreased"},
      {"measurement": "poly-ubiquitination of full-length Nav1.5", "setting": "[6]", "value": "significantly decreased"},
      {"measurement": "QRS amplitude on ECGs", "setting": "[7]", "value": "increased"}
    ]}
  ]
}
